Results on 14 molecules are retold here after PubChem BioAssay AID270 (DTP/NCI, 2004).

This assay concerns BDF1 mice, s.c. Lewis lung carcinoma, T/C %. Kind of assay: NCI In Vivo Anticancer Drug Screen. Data for tumor model Lewis Lung Carcinoma (subcutaneous) in B6D2F1 (BDF1) mice. A digest of the protocol:
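First, mice carry a transplantable tumor. Next, groups receive either compound or vehicle. Finally, survival or tumor dimensions in the dosed animals are divided by the corresponding control figure.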

The mark [1] stands for this setting: endpoint: median tumor weight (est.), dose: 14.0 mg/kg/injection, schedule: Q01DX001 (ip), vehicle: saline with Tween-80, higher = larger tumour.
Setting [2] is: endpoint: median tumor weight (est.), dose: 27.0 mg/kg/injection, schedule: Q01DX001 (ip), vehicle: saline with Tween-80, higher = larger tumour.

Where “and” joins values, the source holds several entries; their conditions need not be identical. Equal entries are not always repeated. Records with an inconclusive call do not appear.

In the case of `O=NN(CCF)C(=O)NC1CCSCC1`, the T/C by setting is: (endpoint: median survival time, dose: 2.5 mg/kg/injection, schedule: Q01DX009 (ip), vehicle: saline with Tween-80, higher = longer survival) 114 % of control; (endpoint: median survival time, dose: 2.5 mg/kg/injection, schedule: Q01DX009 (ip), vehicle: saline, higher = longer survival) 103 % of control; (endpoint: median survival time, dose: 5.0 mg/kg/injection, schedule: Q01DX009 (ip), vehicle: saline with Tween-80, higher = longer survival) 191 % of control; (endpoint: median survival time, dose: 5.0 mg/kg/injection, schedule: Q01DX009 (ip), vehicle: saline, higher = longer survival) 113 % of control; (endpoint: median survival time, dose: 10.0 mg/kg/injection, schedule: Q01DX009 (ip), vehicle: saline, higher = longer survival) 204 % of control; (endpoint: median survival time, dose: 13.0 mg/kg/injection, schedule: Q04DX004 (ip), vehicle: saline with Tween-80, higher = longer survival) 279 % of control. The T/C was 194 % of control and 345 % of control (endpoint: median survival time, dose: 18.0 mg/kg/injection, schedule: Q04DX004 (ip), vehicle: saline with Tween-80, higher = longer survival); 108 % of control (endpoint: median survival time, dose: 20.0 mg/kg/injection, schedule: Q01DX009 (ip), vehicle: saline, higher = longer survival); 122 % of control (endpoint: median survival time, dose: 23.0 mg/kg/injection, schedule: Q04DX004 (ip), vehicle: saline with Tween-80, higher = longer survival); 190 % of control and 381 % of control (endpoint: median survival time, dose: 25.0 mg/kg/injection, schedule: Q07DX002 (ip), vehicle: saline with Tween-80, higher = longer survival); 198 % of control (endpoint: median survival time, dose: 39.0 mg/kg/injection, schedule: Q07DX002 (ip), vehicle: saline with Tween-80, higher = longer survival); 53 % of control under setting [1]. Further, the T/C under setting [2] was 8 % of control.

For `CCCC1CCC(=C2C(=O)CCC2=O)O1` (stereo not drawn), the T/C by setting is: (endpoint: median survival time, dose: 3.13 mg/kg/injection, schedule: Q01DX009 (ip), vehicle: saline, higher = longer survival) 102 % of control; (endpoint: median survival time, dose: 6.25 mg/kg/injection, schedule: Q01DX009 (ip), vehicle: saline, higher = longer survival) 111 % of control; (endpoint: median survival time, dose: 12.5 mg/kg/injection, schedule: Q01DX009 (ip), vehicle: saline, higher = longer survival) 105 % of control; (endpoint: median survival time, dose: 25.0 mg/kg/injection, schedule: Q01DX009 (ip), vehicle: saline, higher = longer survival) 101 % of control.

For `O=NN(CCCl)C(=O)Nc1ccc2c3c(cccc13)-c1ccccc1-2`, the T/C is 100 % of control (endpoint: median survival time, dose: 50.0 mg/kg/injection, schedule: Q01DX009 (ip), vehicle: Klucel (hydroxypropylcellulose) (HPC), higher = longer survival); 97 % of control (endpoint: median survival time, dose: 100.0 mg/kg/injection, schedule: Q01DX009 (ip), vehicle: Klucel (hydroxypropylcellulose) (HPC), higher = longer survival); 88 % of control (endpoint: median survival time, dose: 200.0 mg/kg/injection, schedule: Q01DX009 (ip), vehicle: Klucel (hydroxypropylcellulose) (HPC), higher = longer survival).

On to `C/C=C(\C)c1cc(=O)c2c(C)cc3c(c2o1)C(=O)c1c(O)c(C2CC(C)(N(C)C)C(O)C(C)O2)cc(C2CC(N(C)C)C(O)C(C)O2)c1C3=O` (stereo not drawn), for which the T/C is 100 % of control (endpoint: median survival time, dose: 0.5 mg/kg/injection, schedule: Q01DX009 (ip), vehicle: Klucel (hydroxypropylcellulose) (HPC), higher = longer survival) and 96 % of control (endpoint: median survival time, dose: 2.0 mg/kg/injection, schedule: Q01DX009 (ip), vehicle: Klucel (hydroxypropylcellulose) (HPC), higher = longer survival).

On to `C=C[C@@]1(C)C=C2CC[C@@H]3[C@](C)(CCC[C@@]3(C)C(=O)O)[C@H]2CC1`, for which the T/C (endpoint: mean tumor weight, dose: 25.0 mg/kg/injection, schedule: Q01DX011 (ip), vehicle: saline, higher = larger tumour) was 95 % of control; the T/C (endpoint: mean tumor weight, dose: 50.0 mg/kg/injection, schedule: Q01DX011 (ip), vehicle: saline, higher = larger tumour) is 88 % of control; the T/C (endpoint: mean tumor weight, dose: 100.0 mg/kg/injection, schedule: Q01DX011 (ip), vehicle: saline, higher = larger tumour) was 84 % of control; the T/C (endpoint: mean tumor weight, dose: 200.0 mg/kg/injection, schedule: Q01DX011 (ip), vehicle: saline, higher = larger tumour) is 95 % of control.

On to `CC1OC(O[C@@H]2C=C3CC[C@@H]4[C@H](CC[C@]5(C)[C@@H](c6ccc(=O)oc6)CC[C@]45O)[C@@]3(C)CC2)C(O)C(OC2OC(CO)C(O)C(O)C2O)C1O` (stereo partly drawn), for which the T/C (endpoint: mean tumor weight, dose: 1.2 mg/kg/injection, schedule: Q01DX011 (ip), vehicle: carboxymethylcellulose (CMC), higher = larger tumour) is 106 % of control; the T/C (endpoint: mean tumor weight, dose: 2.5 mg/kg/injection, schedule: Q01DX011 (ip), vehicle: carboxymethylcellulose (CMC), higher = larger tumour) is 102 % of control; the T/C (endpoint: mean tumor weight, dose: 5.0 mg/kg/injection, schedule: Q01DX011 (ip), vehicle: carboxymethylcellulose (CMC), higher = larger tumour) is 80 % of control.

As for `O=c1n(CCCl)c(=O)n(CCCl)c(=O)n1CCCl`, the T/C is, setting by setting: (endpoint: mean tumor weight, dose: 25.0 mg/kg/injection, schedule: Q01DX011 (ip), vehicle: other, higher = larger tumour) 121 % of control; (endpoint: mean tumor weight, dose: 50.0 mg/kg/injection, schedule: Q01DX011 (ip), vehicle: other, higher = larger tumour) 116 % of control; (endpoint: mean tumor weight, dose: 100.0 mg/kg/injection, schedule: Q01DX011 (ip), vehicle: other, higher = larger tumour) 65 % of control; (endpoint: mean tumor weight, dose: 200.0 mg/kg/injection, schedule: Q01DX011 (ip), vehicle: other, higher = larger tumour) 113 % of control; (endpoint: mean tumor weight, dose: 400.0 mg/kg/injection, schedule: Q01DX011 (ip), vehicle: other, higher = larger tumour) 108 % of control.

In the case of `c1ccc2nc3ccccc3c-2cc1`, the T/C (endpoint: mean tumor weight, dose: 125.0 mg/kg/injection, schedule: Q01DX011 (ip), vehicle: saline, higher = larger tumour) was 90 % of control; the T/C (endpoint: mean tumor weight, dose: 250.0 mg/kg/injection, schedule: Q01DX011 (ip), vehicle: saline, higher = larger tumour) is 76 % of control; the T/C (endpoint: mean tumor weight, dose: 500.0 mg/kg/injection, schedule: Q01DX011 (ip), vehicle: saline, higher = larger tumour) was 48 % of control; the T/C (endpoint: mean tumor weight, dose: 1000.0 mg/kg/injection, schedule: Q01DX011 (ip), vehicle: saline, higher = larger tumour) is 56 % of control.

Consider `CCC(=O)NC1=C(N2CC2)C(=O)C(NC(=O)CC)=C(N2CC2)C1=O`, for which the T/C runs as follows: (endpoint: mean tumor weight, dose: 1.8 mg/kg/injection, schedule: Q01DX011 (ip), vehicle: other, higher = larger tumour) 72 % of control; (endpoint: mean tumor weight, dose: 2.7 mg/kg/injection, schedule: Q01DX011 (ip), vehicle: other, higher = larger tumour) 54 % of control; (endpoint: mean tumor weight, dose: 4.0 mg/kg/injection, schedule: Q01DX011 (ip), vehicle: other, higher = larger tumour) 27 % of control; (endpoint: mean tumor weight, dose: 6.0 mg/kg/injection, schedule: Q01DX011 (ip), vehicle: other, higher = larger tumour) 28 % of control.

As to `CC(CN1CC(=O)NC(=O)C1)N1CC(=O)NC(=O)C1` (stereo not drawn), the T/C was 91 % of control (endpoint: median survival time, dose: 0.5 mg/kg/injection, schedule: Q01DX009 (ip), vehicle: saline, higher = longer survival); 109 % of control (endpoint: median survival time, dose: 1.0 mg/kg/injection, schedule: Q01DX009 (ip), vehicle: saline, higher = longer survival); 112 % of control (endpoint: median survival time, dose: 1.9 mg/kg/injection, schedule: Q01DX009 (ip), vehicle: saline, higher = longer survival); 106 % of control (endpoint: median survival time, dose: 3.75 mg/kg/injection, schedule: Q01DX009 (ip), vehicle: saline, higher = longer survival); 108 % of control (endpoint: median survival time, dose: 7.5 mg/kg/injection, schedule: Q01DX009 (ip), vehicle: saline, higher = longer survival); 112 % of control (endpoint: median survival time, dose: 15.0 mg/kg/injection, schedule: Q01DX009 (ip), vehicle: Klucel (hydroxypropylcellulose) (HPC), higher = longer survival). Further, the T/C is 86 % of control (endpoint: median survival time, dose: 30.0 mg/kg/injection, schedule: Q01DX009 (ip), vehicle: Klucel (hydroxypropylcellulose) (HPC), higher = longer survival); 116 % of control (endpoint: median survival time, dose: 60.0 mg/kg/injection, schedule: Q01DX009 (ip), vehicle: Klucel (hydroxypropylcellulose) (HPC), higher = longer survival); 57 % of control and 74 % of control (endpoint: median tumor weight (est.), dose: 13.0 mg/kg/injection, schedule: Q01DX011 (ip), vehicle: saline, higher = larger tumour); 58 % of control and 79 % of control (endpoint: median tumor weight (est.), dose: 20.0 mg/kg/injection, schedule: Q01DX011 (ip), vehicle: saline, higher = larger tumour); 68 % of control (endpoint: median tumor weight (est.), dose: 30.0 mg/kg/injection, schedule: Q01DX011 (ip), vehicle: saline, higher = larger tumour).

For `Nc1nc(SCc2ccccc2Cl)c2[nH]cnc2n1`, the T/C (endpoint: mean tumor weight, dose: 3.8 mg/kg/injection, schedule: Q01DX011 (ip), vehicle: other, higher = larger tumour) is 82 % of control; the T/C (endpoint: mean tumor weight, dose: 7.5 mg/kg/injection, schedule: Q01DX011 (ip), vehicle: other, higher = larger tumour) is 38 % of control; the T/C (endpoint: mean tumor weight, dose: 15.0 mg/kg/injection, schedule: Q01DX011 (ip), vehicle: other, higher = larger tumour) is 99 % of control; the T/C (endpoint: mean tumor weight, dose: 60.0 mg/kg/injection, schedule: Q01DX011 (ip), vehicle: other, higher = larger tumour) was 29 % of control; the T/C (endpoint: mean tumor weight, dose: 120.0 mg/kg/injection, schedule: Q01DX011 (ip), vehicle: other, higher = larger tumour) was 11 % of control.

`O=NN(CCF)C(=O)NC1CSCSC1`: the T/C is, setting by setting: under setting [1], 61 % of control; under setting [2], 45 % of control; (endpoint: median tumor weight (est.), dose: 41.0 mg/kg/injection, schedule: Q01DX001 (ip), vehicle: saline with Tween-80, higher = larger tumour) 8 % of control.

On to `CCCCCCCC(=O)O[C@H]1[C@H]2[C@@H](CC1(C)C)C(=O)[C@]13O[C@H]1C(=O)[C@]1(CO1)[C@]23C`, for which the T/C was 89 % of control (endpoint: median survival time, dose: 0.31 mg/kg/injection, schedule: Q01DX009 (ip), vehicle: Klucel (hydroxypropylcellulose) (HPC), higher = longer survival); 90 % of control (endpoint: median survival time, dose: 0.63 mg/kg/injection, schedule: Q01DX009 (ip), vehicle: Klucel (hydroxypropylcellulose) (HPC), higher = longer survival); 89 % of control (endpoint: median survival time, dose: 1.25 mg/kg/injection, schedule: Q01DX009 (ip), vehicle: Klucel (hydroxypropylcellulose) (HPC), higher = longer survival); 89 % of control (endpoint: median survival time, dose: 2.5 mg/kg/injection, schedule: Q01DX009 (ip), vehicle: Klucel (hydroxypropylcellulose) (HPC), higher = longer survival).

Turning to `CCNCc1cc(Nc2cc(C)nc(/N=C(\N)Nc3ccc(Cl)c(Cl)c3)n2)ccc1OC`, the T/C (endpoint: median survival time, dose: 0.8 mg/kg/injection, schedule: Q01DX009 (ip), vehicle: Klucel (hydroxypropylcellulose) (HPC), higher = longer survival) was 96 % of control; the T/C (endpoint: median survival time, dose: 1.56 mg/kg/injection, schedule: Q01DX009 (ip), vehicle: Klucel (hydroxypropylcellulose) (HPC), higher = longer survival) is 100 % of control; the T/C (endpoint: median survival time, dose: 3.12 mg/kg/injection, schedule: Q01DX009 (ip), vehicle: Klucel (hydroxypropylcellulose) (HPC), higher = longer survival) is 96 % of control.
